Data on 14 molecules can be found in patent US20230339981A1, “KRAS G12D MODULATING COMPOUNDS” (priority 2022, published 2023).

pEC50, pIC50: −log10 of the molar value.

The target of one assay is GDP-loaded KRAS G12D (Homo sapiens (Human), UniProt P01116, G12D). The assay is described as follows: KRAS G12D (GDP) biochemical assay (TR-FRET probe displacement). The format is binding. The following applies: 2 hours. A digest of the protocol: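 TR-FRET probe displacement: 1:3 DMSO serial dilutions pre-incubated 30 min with GDP-bound KRAS G12D, followed by Eu-streptavidin/probe for 2 h at room temperature (Hepes pH 7.4, NaCl, MgCl2, Tween-20 buffer). IC50 defined as concentration halving TR-FRET ratio, from sigmoidal dose-response fit.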

The subject of a further assay is GP2D (KRAS G12D) cells. The assay is described as follows: 2D cell viability assay (CellTiter-Glo). It is filed as cell-based. The following applies: GP2d, 96 h, 4 days. A digest of the protocol:
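Viability was read by CellTiter-Glo after 4 days at 37 °C of 2D culture of KRAS G12D GP2D cells (1000/well, RPMI, 10% FBS) on pre-spotted threefold compound dilutions. EC50 was fitted with a sigmoidal dose-response model as the point of half-maximal luminescence loss.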
Background: In ATP-based viability assays light output follows the ATP content of the culture.

GDP-loaded KRAS G12D, sequence (P01116-2 other isoform, or with tags, fused parts or gaps G12D): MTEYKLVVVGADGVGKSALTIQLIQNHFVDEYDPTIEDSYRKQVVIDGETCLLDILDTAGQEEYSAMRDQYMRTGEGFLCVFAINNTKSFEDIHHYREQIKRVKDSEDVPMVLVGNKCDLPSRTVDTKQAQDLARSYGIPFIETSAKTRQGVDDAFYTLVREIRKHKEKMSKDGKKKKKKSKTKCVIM

In general, pIC50 refers to the IC50 on a negative log10 scale, so that one unit is a factor of ten. Lower therefore signals a large IC50. One may read the pEC50 as the negative decadic logarithm of the EC50, by convention in mol/L. On to `C#Cc1c(F)ccc2cccc(-c3cc4c5c(nc(OC[C@@]67CCCN6C[C@H](F)C7)nc5c3F)N3C[C@H]5CC[C@H](N5)[C@H]3CCC4)c12` [Example 192, (1S,4R,15aR)-11-(8-ethynyl-7-fluoronaphthalen-1-yl)-10-fluoro-8-(((2R,7aS)-2-fluorotetrahydro-1H-pyrrolizin-7a(5H)-yl)methoxy)-2,3,4,5,13,14,15,15a-octahydro-1H-1,4-epiminoazepino[1′,2′:1,8]azocino[2,3,4-de]quinazoline], for which the negative logarithm of the IC50 (pIC50) on GDP-loaded KRAS G12D is 10.00. Also, the pEC50 in the assay with GP2D (KRAS G12D) cells was 8.35.

With `C#Cc1c(F)ccc2cc(N)cc(-c3cc4c5c(nc(OC[C@@]67CCCN6C[C@H](F)C7)nc5c3F)N3C[C@H]5CC[C@H](N5)[C@@H]3[C@@H](C)C4)c12` [Example 193, 5-ethynyl-6-fluoro-4-((1S,4R,14S,14aS)-10-fluoro-8-(((2R,7aS)-2-fluorotetrahydro-1H-pyrrolizin-7a(5H)-yl)methoxy)-14-methyl-1,2,3,4,5,13,14,14a-octahydro-1,4-epiminoazepino[1′,2′:1,7]azepino[2,3,4-de]quinazolin-11-yl)naphthalen-2-amine], the pIC50 at GDP-loaded KRAS G12D is 10.30. For the same molecule, the pEC50 in the assay with GP2D (KRAS G12D) cells is 8.31.

`C#Cc1c(F)ccc2cc(N)cc(-c3nc4c5c(nc(OC[C@@]67CCCN6C[C@H](F)C7)nc5c3F)N3C[C@H]5CC[C@H](N5)[C@@H]3CC[C@H]4C)c12` [Example 194, 5-ethynyl-6-fluoro-4-((4R,6aS,7S,10R)-1-fluoro-13-(((2R,7aS)-2-fluorotetrahydro-1H-pyrrolizin-7a(5H)-yl)methoxy)-4-methyl-5,6,6a,7,8,9,10,11-octahydro-4H-3,11a,12,14,15-pentaaza-7,10-methanocyclohepta[4,5]cycloocta[1,2,3-de]naphthalen-2-yl)naphthalen-2-amine] had a pIC50 at GDP-loaded KRAS G12D of 7.51. The pEC50 with GP2D (KRAS G12D) cells was 7.15.

Regarding `C#Cc1c(F)ccc2cccc(-c3nc4c5c(nc(OC[C@@]67CCCN6[C@H](CF)CC7)nc5c3F)N3C[C@H]5CC[C@H](N5)[C@H]3CC[C@H]4C)c12` [Example 195, (4R,6aR,7S,10R)-2-(8-ethynyl-7-fluoronaphthalen-1-yl)-1-fluoro-13-(((3S,7aS)-3-(fluoromethyl)tetrahydro-1H-pyrrolizin-7a(5H)-yl)methoxy)-4-methyl-5,6,6a,7,8,9,10,11-octahydro-4H-3,11a,12,14,15-pentaaza-7,10-methanocyclohepta[4,5]cycloocta[1,2,3-de]naphthalene], the negative-log IC50 (pIC50) at GDP-loaded KRAS G12D is 10.15. For the same molecule, the pEC50 in the assay with GP2D (KRAS G12D) cells was 8.82.

`C#Cc1c(F)ccc2cc(N)cc(-c3nc4c5c(nc(OC[C@@]67CCCN6C[C@H](F)C7)nc5c3F)N3C[C@H]5CC[C@H](N5)[C@@H]3[C@@H](C)C4)c12` [Example 196, 5-ethynyl-6-fluoro-4-((5S,5aS,6S,9R)-1-fluoro-12-(((2R,7aS)-2-fluorotetrahydro-1H-pyrrolizin-7a(5H)-yl)methoxy)-5-methyl-4,5,5a,6,7,8,9,10-octahydro-3,10a,11,13,14-pentaaza-6,9-methanonaphtho[1,8-ab]heptalen-2-yl)naphthalen-2-amine]: on GDP-loaded KRAS G12D, the pIC50 was 10.00. In addition, in the assay on GP2D (KRAS G12D) cells, the pEC50 is 8.74.

At GDP-loaded KRAS G12D, `C#Cc1c(F)ccc2cccc(-c3nc4c5c(nc(OC[C@@]67CCCN6[C@H](COc6cnc(C(F)(F)F)cn6)CC7)nc5c3F)N3C[C@H]5CC[C@H](N5)[C@H]3CCC4)c12` [Example 197, (6aR,7S,10R)-2-(8-ethynyl-7-fluoronaphthalen-1-yl)-1-fluoro-13-(((3S,7aS)-3-(((5-(trifluoromethyl)pyrazin-2-yl)oxy)methyl)tetrahydro-1H-pyrrolizin-7a(5H)-yl)methoxy)-5,6,6a,7,8,9,10,11-octahydro-4H-3,11a,12,14,15-pentaaza-7,10-methanocyclohepta[4,5]cycloocta[1,2,3-de]naphthalene] had a pIC50 of 10.40. Moreover, the pEC50 with GP2D (KRAS G12D) cells was 8.62.

The molecule `C#Cc1c(F)ccc2cccc(-c3nc4c5c(nc(OC[C@@]67CCCN6[C@H](COc6cc(C(F)(F)F)cnn6)CC7)nc5c3F)N3C[C@H]5CC[C@H](N5)[C@H]3CCC4)c12` [Example 198, (6aR,7S,10R)-2-(8-ethynyl-7-fluoronaphthalen-1-yl)-1-fluoro-13-(((3S,7aS)-3-(((5-(trifluoromethyl)pyridazin-3-yl)oxy)methyl)tetrahydro-1H-pyrrolizin-7a(5H)-yl)methoxy)-5,6,6a,7,8,9,10,11-octahydro-4H-3,11a,12,14,15-pentaaza-7,10-methanocyclohepta[4,5]cycloocta[1,2,3-de]naphthalene] had a pIC50 at GDP-loaded KRAS G12D of 10.70. This molecule also gave a negative logarithm of the EC50 (pEC50) in the assay with GP2D (KRAS G12D) cells of 8.62.

In turn, `C#Cc1c(F)ccc2cccc(-c3nc4c5c(nc(OC[C@@]67CCCN6[C@H](COc6cnnc(C(F)(F)F)c6)CC7)nc5c3F)N3C[C@H]5CC[C@H](N5)[C@H]3CCC4)c12` [Example 199, (6aR,7S,10R)-2-(8-ethynyl-7-fluoronaphthalen-1-yl)-1-fluoro-13-(((3S,7aS)-3-(((6-(trifluoromethyl)pyridazin-4-yl)oxy)methyl)tetrahydro-1H-pyrrolizin-7a(5H)-yl)methoxy)-5,6,6a,7,8,9,10,11-octahydro-4H-3,11a,12,14,15-pentaaza-7,10-methanocyclohepta[4,5]cycloocta[1,2,3-de]naphthalene] showed a pIC50 at GDP-loaded KRAS G12D of 10.15. The negative logarithm of the EC50 (pEC50) in the assay on GP2D (KRAS G12D) cells is 8.49.

In the case of `C#Cc1c(F)ccc2cccc(-c3nc4c5c(nc(OC[C@@]67CCCN6[C@H](COc6cnc(C(F)F)cn6)CC7)nc5c3F)N3C[C@H]5CC[C@H](N5)[C@H]3CCC4)c12` [Example 200, (6aR,7S,10R)-13-(((3S,7aS)-3-(((5-(difluoromethyl)pyrazin-2-yl)oxy)methyl)tetrahydro-1H-pyrrolizin-7a(5H)-yl)methoxy)-2-(8-ethynyl-7-fluoronaphthalen-1-yl)-1-fluoro-5,6,6a,7,8,9,10,11-octahydro-4H-3,11a,12,14,15-pentaaza-7,10-methanocyclohepta[4,5]cycloocta[1,2,3-de]naphthalene], at GDP-loaded KRAS G12D, the pIC50 is 10.30. This molecule showed a pEC50 with GP2D (KRAS G12D) cells of 8.54.

`C#Cc1c(F)ccc2cccc(-c3nc4c5c(nc(OC[C@@]67CCCN6[C@H](CSc6cc(C(F)(F)F)ncn6)CC7)nc5c3F)N3C[C@H]5CC[C@H](N5)[C@H]3CCC4)c12` [Example 201, (6aR,7S,10R)-2-(8-ethynyl-7-fluoronaphthalen-1-yl)-1-fluoro-13-(((3S,7aS)-3-(((6-(trifluoromethyl)pyrimidin-4-yl)thio)methyl)tetrahydro-1H-pyrrolizin-7a(5H)-yl)methoxy)-5,6,6a,7,8,9,10,11-octahydro-4H-3,11a,12,14,15-pentaaza-7,10-methanocyclohepta[4,5]cycloocta[1,2,3-de]naphthalene] gave a pIC50 on GDP-loaded KRAS G12D of 10.70. This molecule also had a pEC50 with GP2D (KRAS G12D) cells of 8.00.

On to `C#Cc1c(F)ccc2cccc(-c3c(Cl)c4c5c(nc(OC[C@@]67CCCN6C[C@H](F)C7)nc5c3F)N3C[C@H]5CC[C@H](N5)[C@H]3CC4)c12` [Example 202, (1S,4R,14aR)-12-chloro-11-(8-ethynyl-7-fluoronaphthalen-1-yl)-10-fluoro-8-(((2R,7aS)-2-fluorotetrahydro-1H-pyrrolizin-7a(5H)-yl)methoxy)-1,2,3,4,5,13,14,14a-octahydro-1,4-epiminoazepino[1′,2′:1,7]azepino[2,3,4-de]quinazoline], for which the pIC50 at GDP-loaded KRAS G12D is 9.43. This molecule gave a pEC50 in the assay with GP2D (KRAS G12D) cells of 7.19.

At GDP-loaded KRAS G12D, `C#Cc1c(F)ccc2cccc(-c3nc4c5c(nc(OC[C@@]67CCCN6[C@H](COc6cc(C(F)(F)F)ncn6)CC7)nc5c3F)N3C[C@H]5CC[C@H](N5)[C@H]3CC[C@H]4C)c12` [Example 203, (4R,6aR,7S,10R)-2-(8-ethynyl-7-fluoronaphthalen-1-yl)-1-fluoro-4-methyl-13-(((3S,7aS)-3-(((6-(trifluoromethyl)pyrimidin-4-yl)oxy)methyl)tetrahydro-1H-pyrrolizin-7a(5H)-yl)methoxy)-5,6,6a,7,8,9,10,11-octahydro-4H-3,11a,12,14,15-pentaaza-7,10-methanocyclohepta[4,5]cycloocta[1,2,3-de]naphthalene] gave a negative-log IC50 (pIC50) of 9.92. The same molecule gave a negative-log EC50 (pEC50) in the assay on GP2D (KRAS G12D) cells of 8.92.

At GDP-loaded KRAS G12D, `C#Cc1c(F)ccc2cc(O)cc(-c3c(Cl)c4c5c(nc(OC[C@@]67CCCN6C[C@H](F)C7)nc5c3F)N3C[C@H]5CC[C@H](N5)[C@H]3CC4)c12` [Example 204, 4-((1S,4R,14aR)-12-chloro-10-fluoro-8-(((2R,7aS)-2-fluorotetrahydro-1H-pyrrolizin-7a(5H)-yl)methoxy)-1,2,3,4,5,13,14,14a-octahydro-1,4-epiminoazepino[1′,2′:1,7]azepino[2,3,4-de]quinazolin-11-yl)-5-ethynyl-6-fluoronaphthalen-2-ol] had a pIC50 of 10.00. The negative logarithm of the EC50 (pEC50) in the assay with GP2D (KRAS G12D) cells was 8.89.

`C#Cc1c(F)ccc2cccc(-c3nc4c5c(nc(OC[C@@]67CCCN6[C@H](COc6cc(C(F)F)ncn6)CC7)nc5c3F)N3C[C@H]5CC[C@H](N5)[C@H]3CCC4)c12` [Example 205, (6aR,7S,10R)-13-(((3S,7aS)-3-(((6-(difluoromethyl)pyrimidin-4-yl)oxy)methyl)tetrahydro-1H-pyrrolizin-7a(5H)-yl)methoxy)-2-(8-ethynyl-7-fluoronaphthalen-1-yl)-1-fluoro-5,6,6a,7,8,9,10,11-octahydro-4H-3,11a,12,14,15-pentaaza-7,10-methanocyclohepta[4,5]cycloocta[1,2,3-de]naphthalene]: the pIC50 on GDP-loaded KRAS G12D was 10.22. Besides, the pEC50 in the assay on GP2D (KRAS G12D) cells is 8.66.
